Test system: Bax mediated cytochrome c release, Bcl-xL
Assay: Cytochrome c release from purified mitochondria by tBid and Bax in the presence of Bcl-xL
Assay type: biochemical
Conditions: mouse liver mitochondria; 5 nM tBid, 50 nM Bax, 300 nM Bcl-xL; 15 min, 30 °C; Western blot; pre-incubation pH 9, 30 °C
Method: (A–E) in vitro reconstitution assay on liposome permeabilization. […] The treated Bcl-xL was then added to reactions containing ANTS-DPX liposomes, 100 nM Bax and 20 nM of either cBid (A,B) or cBidmt1(C,D) at pH 7. Liposome permeabilization was quantified by fluorescence after 5h incubation at 37 °C where 100% release was defined as the fluorescence change due to lipid solubilization with 1% Triton X-100. […] Error bars, std. dev. n = 3. To compare between the TCTP treated groups and the Control group statistically, two-way ANOVA test was performed for (A–D) and one-way ANOVA test was performed for (E). […] Colored asterisks above each data point indicate the statistical significance (*p < 0.05; **p < 0.01, no asterisks if p ≥ 0.05). A complete statistical analysis is provided in Supplementary Table 2–4. […] Cyto c extra-mito: in the supernatant, analysed by Western blot. […]
to highlight the pre-incubation), pH 9, 30 C° before being added to the mitochondria at their final concentrations. […] Cytochrome c was detected in the mitochondrial fraction (Cyto c intra-mito) or in the supernatant (Cyto c extra-mito) by Western blot analysis. […]
Cytochrome c release assay. […] Mitochondrial pellets and the corresponding supernatant fractions were subjected to SDS-polyacrylamide gel electrophoresis and analyzed by Western blotting for cytochrome c.

Substance: TCTP: Translationally Controlled Tumor Protein (TCTP/tpt1), recombinant full-length
- inhibition of cytochrome c release in the presence of Bcl-xL: inhibit cytochrome c release in a concentration-dependent manner

Reference: PMC4728560 (Scientific Reports, 2016)
